In one data set the test system is HepG2 cells. The data set is described as follows: In vitro cytotoxicity to mammalian cells, HepG2. The data set is classed as cell-based. Conditions: Homo sapiens. The text has this:
(§1) Med. Chem. 2005, 13, 4458; Khan, I. A. Lipids 2004, 37, 169].

For data set [1], the system named is CQ-sensitive (D6 clone) strain of P. falciparum. The data set is described as follows: In vitro antimalarial activity, CQ-sensitive strain. The settings on record: for IC50: Plasmodium falciparum, CQ-sensitive D6 clone, read-out: P. falciparum (D6 Clone) IC50; for selectivity index of antimalarial activity: ratio of IC50 for cytotoxicity to Vero cells and IC50 for antimalarial activity; for P. falciparum (D6 Clone) S.I.: selectivity index = IC50 cytotoxicity to Vero cells / IC50 antimalarial. Type of data set: cell-based, Plasmodium falciparum.
Text: as §1

The next data set deals with VERO cells. The data set is described as follows: In vitro cytotoxicity to mammalian cells, VERO. Type of data set: cell-based. Conditions: for IC50: Chlorocebus sabaeus, Vero, in vitro cytotoxicity to mammalian cells; for toxicity to cell lines: all the three cell lines (VERO, LLC-PK-1, and HepG2).
Text: as §1

In another data set the test system is LLC-PK-1 cells. The data set can be described thus: In vitro cytotoxicity to mammalian cells, LLC-PK-1. The data set is classed as cell-based. The settings on record: Sus scrofa, LLC-PK1.
Text: as §1

The subject of data set [2] is CQ-resistant (W2 clone) strain of P. falciparum. The data set is described as follows: In vitro antimalarial activity, CQ-resistant strain. The data set is classed as cell-based, Plasmodium falciparum. The settings on record: for IC50: Plasmodium falciparum, CQ-resistant W2 clone, read-out: P. falciparum (W2 Clone) IC50; for P. falciparum (W2 Clone) S.I.: selectivity index = IC50 cytotoxicity to Vero cells / IC50 antimalarial.
Text: as §1

Experimental findings from patent US11026943B2, “Aminoquinoline derivatives and uses thereof” (UNIVERSITY OF DELHI, priority 2012, dated 2021) are described below.

One may read the IC50 as the midpoint of a concentration-inhibition curve. A word on the melting point: it is the temperature, or range, at which the solid turns liquid.

`Cc1cc(NCCCCCCNc2ccnc3cc(Cl)ccc23)nc(N2CCN(C)CC2)n1` [12l, N-(7-Chloro-quinolin-4-yl)-N′-[6-methyl-2-(4-methyl-piperazin-1-yl)-pyrimidin-4-yl]-hexane-1,6-diamine]: the melting point was 152 to 154 °C. For the same compound, in the data set on HepG2 cells, the IC50 was under 6.7 µM. In data set [1] (CQ-sensitive strain), the “activity fold higher than artemisinin” value stood at 2 fold. Moreover, in data set [1], the half-inhibitory concentration (IC50) worked out at 0.007 µM, the “selectivity index of antimalarial activity” value is reported as “considerably high” and the “P. falciparum (D6 Clone) S.I.” value is given as “(>1457)”. In the data set on VERO cells, the IC50 came to 10.2 µM and the “toxicity to cell lines” value is “showed toxicity”. It took 7.4 µM to reach half-maximal inhibition with LLC-PK-1 cells (IC50). Further, in data set [2], the IC50 came out at 0.016 µM and the “P. falciparum (W2 Clone) S.I.” value is on record as “(>637)”.
`Cc1cc(NCCCCCCNc2ccnc3cc(Cl)ccc23)nc(N2CCOCC2)n1` [12h, N-(7-Chloro-quinolin-4-yl)-N′-(6-methyl-2-morpholin-4-yl-pyrimidin-4-yl)-hexane-1,6-diamine] had a melting point of 107 to 109 °C. In the data set on HepG2 cells, this compound displayed an IC50 of under 6.7 µM. Further, in data set [1], the half-inhibitory concentration (IC50) stood at 0.041 µM, the “selectivity index of antimalarial activity” value was “considerably high” and the “P. falciparum (D6 Clone) S.I.” value is reported as 417.0. Besides, in the data set with VERO cells, the IC50 was 17.1 µM and the “toxicity to cell lines” value is “showed toxicity”. The same compound returned an IC50 in the data set on LLC-PK-1 cells of 9.8 µM. Also, in data set [2], the IC50 turned out to be 0.12 µM and the “P. falciparum (W2 Clone) S.I.” value turned out to be 142.5.
Regarding `CCN1CCN(c2nc(C)cc(NCCCCNc3ccnc4cc(Cl)ccc34)n2)CC1` [12n, N-(7-Chloro-quinolin-4-yl)-N′-[2-(4-ethyl-piperazin-1-yl)-6-methyl-pyrimidin-4-yl]-butane-1,4-diamine], the melting point was 101 to 103 °C. In the data set on HepG2 cells, this compound returned an IC50 of 14.9 µM. Further, in data set [1], the half-maximal inhibitory concentration (IC50) came to 0.019 µM and the “P. falciparum (D6 Clone) S.I.” value turned out to be 1678.9. In addition, inhibition in the data set on VERO cells was half-maximal at 31.9 µM (IC50). The IC50 with LLC-PK-1 cells was 10.5 µM. In addition, in data set [2], the IC50 was determined as 0.018 µM and the “P. falciparum (W2 Clone) S.I.” value stood at 1772.2.
`Cc1cc(NCCCCNc2ccnc3cc(Cl)ccc23)nc(N2CCN(C)CC2)n1` [12k, N-(7-Chloro-quinolin-4-yl)-N′-[6-methyl-2-(4-methyl-piperazin-1-yl)-pyrimidin-4-yl]-butane-1,4-diamine]: the melting point lay within 183 to 185 °C. The same compound had an IC50 with HepG2 cells of 27.2 µM. For the same compound, in data set [1], the IC50 amounted to 0.022 µM and the “P. falciparum (D6 Clone) S.I.” value was “(>2727)”. Further, in the data set with VERO cells, the 50% inhibitory concentration (IC50) was over 60 µM. The 50% inhibitory concentration (IC50) with LLC-PK-1 cells was 34 µM. Further, in data set [2], the IC50 turned out to be 0.021 µM and the “P. falciparum (W2 Clone) S.I.” value is reported as “(>2857)”.
Regarding `Cc1cc(NCCCCNc2ccnc3cc(Cl)ccc23)nc(N2CCCCC2)n1` [12c, N-(7-Chloro-quinolin-4-yl)-N′-(6-methyl-2-piperidin-1-yl-pyrimidin-4-yl)-butane-1,4-diamine], the melting point is 187 to 189 °C. Also, the IC50 in the data set on HepG2 cells was over 60 µM. In data set [1], the IC50 was 0.021 µM and the “P. falciparum (D6 Clone) S.I.” value was “(>2857)”. Further, the IC50 in the data set on VERO cells is over 60 µM. In the data set on LLC-PK-1 cells, this compound came in with an IC50 of over 60 µM. Further, in data set [2], the IC50 came out at 0.082 µM and the “P. falciparum (W2 Clone) S.I.” value was “(>730)”.
